Results: patent publication US9290788B2, “Device for determining or studying the state of stimulation of the natural defences of plants or portions of plants” (Institut National De La Recherche Agronomique, priority 2010, dated 2016)

System: 28 target genes (defense genes) in apple tree leaves
Test: Test 1: relative expression of the 28 defense genes (qPCR, ΔΔCt) in apple tree seedling leaves subjected to NDS treatments and abiotic stresses
Assay type: in vivo, apple tree seedlings (Golden Delicious)
Details: for Relative expression of ANS / Relative expression of PAL / Relative expression of PR-1 / Relative expression of PR-2 / Relative expression of PR-4 / Relative expression of PR-5 / Relative expression of PR-8 / Relative expression of PR-14 / Relative expression of PR-15: vs water control
[1] = +H2O2, J2, relative to water control
[2] = +H2O2, J3, relative to water control
[3] = +H2O2 (sprayed 24 hours after treatment), J2
[4] = +H2O2 (sprayed 24 hours after treatment), J3
[5] = −H2O2, J2, relative to water control
[6] = −H2O2, J3, relative to water control

With `CC/C=C\CC1C(=O)CCC1CC(=O)OC` (stereo not shown) [MeJA, methyl jasmonate] the “Relative expression ACCO (log base 2)” value [1] was 3.48, the “Relative expression APOX (log base 2)” value [1] was 1.87 and the “Relative expression CAD (log base 2)” value [1] was 0.70. The “Relative expression CHS (log base 2)” value [1] was 3.73, the “Relative expression CSL (log base 2)” value [1] was 2.26 and the “Relative expression CalS (log base 2)” value [1] was 0.48. For the same compound, the “Relative expression DFR (log base 2)” value [1] was 3.43, the “Relative expression EDS1 (log base 2)” value [1] was −0.17 and the “Relative expression EIN3 (log base 2)” value [1] was 2.54. For the same compound, the “Relative expression FPPS (log base 2)” value [1] was −0.07, the “Relative expression Far (log base 2)” value [1] was 0.74 and the “Relative expression GST (log base 2)” value [1] was 0.47. For the same compound, the “Relative expression HMGR (log base 2)” value [1] was −0.38, the “Relative expression JAR (log base 2)” value [1] was 0.73 and the “Relative expression LOX2 (log base 2)” value [1] was 1.51. The “Relative expression POX (log base 2)” value [1] was 2.84, the “Relative expression PPO (log base 2)” value [1] was 0.80 and the “Relative expression Pect (log base 2)” value [1] was −2.02. The “Relative expression WRKY (log base 2)” value [1] was −0.06, the “Relative expression ACCO (log base 2)” value [2] was 2.28 and the “Relative expression APOX (log base 2)” value [2] was 2.11. For the same compound, the “Relative expression CAD (log base 2)” value [2] was 0.35, the “Relative expression CHS (log base 2)” value [2] was 1.47 and the “Relative expression CSL (log base 2)” value [2] was 1.46. The “Relative expression CalS (log base 2)” value [2] was 1.48, the “Relative expression DFR (log base 2)” value [2] was 1.36 and the “Relative expression EDS1 (log base 2)” value [2] was 0.98. The “Relative expression EIN3 (log base 2)” value [2] was 1.80, the “Relative expression FPPS (log base 2)” value [2] was 0.43 and the “Relative expression Far (log base 2)” value [2] was 0.39. The “Relative expression GST (log base 2)” value [2] was 0.87, the “Relative expression HMGR (log base 2)” value [2] was 0.60 and the “Relative expression JAR (log base 2)” value [2] was 1.61. For the same compound, the “Relative expression LOX2 (log base 2)” value [2] was 1.99, the “Relative expression POX (log base 2)” value [2] was 4.29 and the “Relative expression PPO (log base 2)” value [2] was 1.23. The “Relative expression Pect (log base 2)” value [2] was 2.16, the “Relative expression WRKY (log base 2)” value [2] was 3.46 and the “Relative expression of ANS” value [3] was 3.29 log2. For the same compound, the “Relative expression of PAL” value [3] was 3.36 log2, the “Relative expression of PR-1” value [3] was 0.40 log2 and the “Relative expression of PR-2” value [3] was 3.89 log2. The “Relative expression of PR-4” value [3] was 1.25 log2, the “Relative expression of PR-5” value [3] was −2.09 log2 and the “Relative expression of PR-8” value [3] was 1.41 log2. For the same compound, the “Relative expression of PR-14” value [3] was −0.64 log2, the “Relative expression of PR-15” value [3] was 3.20 log2 and the “Relative expression of ANS” value [4] was 1.44 log2. For the same compound, the “Relative expression of PAL” value [4] was 2.01 log2, the “Relative expression of PR-1” value [4] was 2.84 log2 and the “Relative expression of PR-2” value [4] was 0.68 log2. For the same compound, the “Relative expression of PR-4” value [4] was 2.84 log2, the “Relative expression of PR-5” value [4] was −1.22 log2 and the “Relative expression of PR-8” value [4] was 1.51 log2. The “Relative expression of PR-14” value [4] was 3.68 log2, the “Relative expression of PR-15” value [4] was 2.77 log2 and the “Relative expression of ANS” value (−H2O2, J2) was 2.31 log2. For the same compound, the “Relative expression of PAL” value (−H2O2, J2) was 3.17 log2, the “Relative expression of PR-1” value (−H2O2, J2) was 1.56 log2 and the “Relative expression of PR-2” value (−H2O2, J2) was 4.03 log2. For the same compound, the “Relative expression of PR-4” value (−H2O2, J2) was 2.68 log2, the “Relative expression of PR-5” value (−H2O2, J2) was −0.59 log2 and the “Relative expression of PR-8” value (−H2O2, J2) was 1.85 log2. The “Relative expression of PR-14” value (−H2O2, J2) was 3.45 log2, the “Relative expression of PR-15” value (−H2O2, J2) was −0.19 log2 and the “Relative expression of ANS” value (−H2O2, J3) was 1.58 log2. For the same compound, the “Relative expression of PAL” value (−H2O2, J3) was 1.66 log2, the “Relative expression of PR-1” value (−H2O2, J3) was 2.35 log2 and the “Relative expression of PR-2” value (−H2O2, J3) was 3.69 log2. The “Relative expression of PR-4” value (−H2O2, J3) was 2.63 log2, the “Relative expression of PR-5” value (−H2O2, J3) was 1.49 log2 and the “Relative expression of PR-8” value (−H2O2, J3) was 1.00 log2. The “Relative expression of PR-14” value (−H2O2, J3) was 5.09 log2, the “Relative expression of PR-15” value (−H2O2, J3) was 1.21 log2 and the “Relative expression ACCO (log base 2)” value [5] was 1.92. For the same compound, the “Relative expression APOX (log base 2)” value [5] was −3.00, the “Relative expression CAD (log base 2)” value [5] was 1.52 and the “Relative expression CHS (log base 2)” value [5] was 2.97. For the same compound, the “Relative expression CSL (log base 2)” value [5] was 2.29, the “Relative expression CalS (log base 2)” value [5] was 0.05 and the “Relative expression DFR (log base 2)” value [5] was 2.92. The “Relative expression EDS1 (log base 2)” value [5] was 1.91, the “Relative expression EIN3 (log base 2)” value [5] was 3.82 and the “Relative expression FPPS (log base 2)” value [5] was 0.00. The “Relative expression Far (log base 2)” value [5] was 2.34, the “Relative expression GST (log base 2)” value [5] was 1.00 and the “Relative expression HMGR (log base 2)” value [5] was 1.49. For the same compound, the “Relative expression JAR (log base 2)” value [5] was 1.25, the “Relative expression LOX2 (log base 2)” value [5] was 1.60 and the “Relative expression POX (log base 2)” value [5] was 0.66. The “Relative expression PPO (log base 2)” value [5] was 1.28, the “Relative expression Pect (log base 2)” value [5] was 0.98 and the “Relative expression WRKY (log base 2)” value [5] was 1.25. The “Relative expression ACCO (log base 2)” value [6] was 1.96, the “Relative expression APOX (log base 2)” value [6] was 0.95 and the “Relative expression CAD (log base 2)” value [6] was 0.01. The “Relative expression CHS (log base 2)” value [6] was 1.22, the “Relative expression CSL (log base 2)” value [6] was 1.81 and the “Relative expression CalS (log base 2)” value [6] was 1.14. The “Relative expression DFR (log base 2)” value [6] was 1.55, the “Relative expression EDS1 (log base 2)” value [6] was 1.22 and the “Relative expression EIN3 (log base 2)” value [6] was 1.22. For the same compound, the “Relative expression FPPS (log base 2)” value [6] was 0.13, the “Relative expression Far (log base 2)” value [6] was 1.51 and the “Relative expression GST (log base 2)” value [6] was −0.15. The “Relative expression HMGR (log base 2)” value [6] was 1.16, the “Relative expression JAR (log base 2)” value [6] was 0.63 and the “Relative expression LOX2 (log base 2)” value [6] was 1.45. For the same compound, the “Relative expression POX (log base 2)” value [6] was 3.86, the “Relative expression PPO (log base 2)” value [6] was 0.78 and the “Relative expression Pect (log base 2)” value [6] was 3.87. The “Relative expression WRKY (log base 2)” value [6] was 0.85.
